Data on one molecule can be found in patent US8962322B2, “Enhancers of induced pluripotent stem cell reprogramming” (City of Hope, priority 2012, dated 2015).

Format in all cases: cell-based, mouse
In one experiment the test system is endogenous Nanog. The experiment in a line: RT-PCR of endogenous Nanog mRNA in treated MEFs. The note with it: versus vehicle. As to the method: MEFs were treated with vehicle control or OAC 1 to test whether OAC 1 activates endogenous Oct4 and Nanog gene transcription. […] Oct4, Sox2, and Nanog are central to the transcriptional regulatory hierarchy for ESC pluripotency, forming the core transcriptional regulatory circuitry in ESCs (37). […] OAC1 activated Sox2 mRNA expression, along with Oct4 and Nanog (FIG. 61).
(§1) RT-PCR analysis: Total RNA was purified with Trizol reagent (Invitrogen). Reverse transcription was performed with 1 μg of RNA using Omniscript® Reverse Transcription Kit (Qiagen). Quantitative PCR was performed using iTaq SYBR Green Supermix with Rox (Bio-rad) in Applied Biosystem Step one plus real-time PCR system. […]

Another experiment relates to p21. The experiment is described as follows: RT-PCR of p21 expression in treated MEFs. The note with it: MEFs treated for two days. As to the method: Inhibition of the p53-p21 signaling increased reprogramming efficiency (26, 28-31, 41). To investigate whether compound OAC1 enhanced reprogramming efficiency by affecting this pathway, MEFs were treated with vehicle control or OAC1 and determined the expression level of p53 and p21 in the treated cells.
as §1

A further experiment concerns OG2 MEFs. The experiment is described as follows: iPSC derivation from 4F (OSKM)-transduced OG2 MEFs in iSF1 media (Oct4-GFP colonies). The procedure: Recently, a serum-free media (iSF1) was developed to facilitate the generation of mouse iPSCs (39). The effect of compound OAC1 in the 4F-induced reprogramming was tested in iSF1 media. OG2 MEFs, derived from transgenic mice expressing the Oct4 promoter-driven GFP reporter (Oct4-GFP) (40), were transduced with retroviruses expressing the 4F reprogramming factors, Oct4, Sox2, Klf4, and c-Myc. The 4F-transduced cells were transferred to iSF1 media two days after viral transduction and this day was designated as day 0 (FIG. 3A). Treatment of compound OAC1 started on day 1 and lasted for 7 days. […] At day 5, a more than 3-fold increase in the number of GFP-positive colonies was detected in OAC1-treated, 4F-transduced cells (4F+OAC1), compared to vehicle-treated, 4F-transduced cells (FIG. 3B, C). […] The number of GFP-positive colonies in 4F-treated cells at day 8 (average of 200) was less than the number of GFP-positive colonies in 4F+OAC1-treated cells at day 5 (average of 350) (FIG. 3B, C).
iPSC Derivation in iSF1 Media: OG2 MEFs were seeded onto 6-well plates at the density of 3×10^4 cells per well in DMEM medium with 10% FBS, 0.1 mM NEAA, and 0.1 mM L-glutamine, 24 hr before transduction. Freshly prepared viruses of the 4F, Oct4, Sox2, c-Myc, and Klf4, were added to the cells. Two days after viral infection, the transduced OG2 MEFs were split into new 6-well plates with irradiated MEF feeders and cultured in iSF1 reprogramming media containing high glucose DMEM, 10% knockout serum, 0.5% N2, 5 ng/ml b-FGF, 2 mM L-glutamine, 0.1 mM 2-mercaptoethanol, 0.1 mM NEAA and 1000 U/ml of LIF. This day was defined as day 0. On day 1, 1 μM of each compound (OAC1, OAC2, and OAC3) was added to the 4F-transduced OG2 MEFs. Treatment was continued for 1 week. When iPSC colonies emerged, these colonies were picked for expansion on the irradiated MEF feeders in mouse ESC medium.

A further experiment relates to Tet1. The experiment is described as follows: RT-PCR of Tet1 mRNA in treated MEFs. The note with it: versus vehicle. As to the method: The up-regulation of Tet1 is intriguing, as this is a gene that converts 5-methylcytosine to 5-hydroxymethylcytosine and may be involved in active DNA demethylation.
as §1

`O=C(Nc1cc2cc[nH]c2cn1)c1ccccc1` [OAC1, N-(1H-6-azaindol-5-yl)benzamide]: the “endogenous Nanog mRNA expression” value in the experiment with endogenous Nanog is recorded as “activated”. In addition, the “p21 expression level versus DMSO” value in the experiment on p21 was “no significant difference”. In the experiment on OG2 MEFs (MEFs in iSF1 media, OSKM, seeding 3 × 10^4, day 8, 1 μM compound), the Colony numbers is 800. In addition, the Reprogramming efficiency in the experiment with OG2 MEFs (MEFs in iSF1 media, OSKM, seeding 3 × 10^4, day 8, colony numbers divided by seeding cell numbers) came to 2.75%. Also, in the experiment on OG2 MEFs (iSF1 media, 4F+compound, days after transfer to iSF1 media), the “day at which GFP+ colonies started to appear” value was determined as 3 days. In addition, in the experiment with OG2 MEFs (iSF1 media, day 5), the “increase in the number of GFP-positive colonies compared to vehicle-treated 4F-transduced cells” value is “more than 3 fold” and the “number of GFP-positive colonies (average)” value was 350. For the same molecule, in the experiment with OG2 MEFs (not a direct comparison), the “reprogramming efficiency of 4F+compound relative to 4F alone in the initial Yamanaka study” value is listed as “more than 20 fold”. The “Tet1 mRNA expression” value in the experiment with Tet1 is given as “up-regulated”.
